Test system: normal human dermal fibroblasts (NHDF)
Test: Gene expression in NHDF, full transcriptome analysis with Affymetrix U219 microarray
Assay type: cell-based
Conditions: NHDF
Experimental: In the present study, the transcriptional effects (modulation of gene expression) of compounds 1, 2, 3 and 4 were evaluated on normal human dermal fibroblasts (NHDF) under basal conditions.
More specifically, the comparative analysis of the different transcriptomic profiles was performed using an Affymetrix GeneAtlas platform and the human “full transcriptome” U219 chip, which includes 36,000 transcripts and variants.
Fibroblasts were seeded in 24-well plates and cultured in culture medium for 24 hours. The medium was then replaced by assay medium and cells were incubated for further 24 hours. The medium was replaced by assay medium containing or not (control) the test compounds at different concentrations and the cells were preincubated for 24 hours. All experimental conditions were performed in triplicate. At the end of incubation, the culture supernatants were removed and the cells were washed in a phosphate buffered saline (PBS) solution and immediately frozen at −80° C.
Before RNA extraction, the replicates were pooled. Total RNA was extracted from each sample using TriPure Isolation Reagent® according to the supplier's instructions. The amount and quality of total RNA were evaluated for all samples using capillary electrophoresis (Bioanalyzer 2100, Agilent technologies). From each RNA, a labeled and amplified anti-sens RNA (aRNA) was obtained using GeneChip 3′IVT PLUS Kit (Affymetrix). For each labeled and amplified aRNA sample the profiles were evaluated before and after fragmentation using capillary electrophoresis (Bioanalyzer 2100, Agilent technologies). Hybridization of fragmented aRNA onto Affymetrix® U219 chip (36,000 transcripts and variants) was performed in the GeneAtlas™ fluidics Affymetrix® hybridization station for 20 hours at 45° C. U219 chip was analyzed using the GeneAtlas™ Imaging station (Affymetrix®—resolution 2 μm) to generate fluorescence intensity data.
Expression Console and Quality controls: data were normalized with the Expression Console (Affymetrix®) software using RMA algorithm. Then a quality control of the labeling and the hybridization was performed. Hybridization and labeling steps successfully passed the quality controls for these experiments.
Data reduction, Excel file description: once normalized with Expression Console, data were transferred into a Microsoft Excel® file in order to go further into data reduction.
Calculation and tools were added in order to rank and sort data, and finally to support data interpretation. Detection thresholds in terms of fold change were defined and applied on normalized data.
Results are considered and presented or commented per gene (and not probe). A probe set is a collection of probes designed to interrogate a given sequence of a gene. For data interpretation, the most important relative expression value obtained with one probe is considered to be representative of the corresponding gene. The file contains the following data: • Relative expression (RE) for each sample, • Fold change calculation, • Gene information.

[1] = relative expression adjusted to detection limit (<20), 10 mg/ml, 24 h

CC(=O)N(CCCC[C@H](N)C(=O)O)CC(F)(F)[C@]1(O)O[C@H](CO)[C@H](O)[C@H](O)[C@H]1O [Compound 4] was tested, and the “effect of treatment of NHDF on lipid synthesis (transcriptional)” value was “up regulation of lipids synthesis, including fatty acids, cholesterol or ceramides”, the “Fold change, CYP51A1///LRRD1” value (10 mg/ml, 24 h, vs control) was 2.38 and the “Fold change, DHCR7” value (10 mg/ml, 24 h, vs control) was 3.24. The “Fold change, HMGCS1” value (10 mg/ml, 24 h, vs control) was 2.39, the “Fold change, HSD17B7” value (10 mg/ml, 24 h, vs control) was 2.43 and the “Fold change, MVD” value (10 mg/ml, 24 h, vs control) was 2.77. For the same molecule, the “Fold change, SC5D” value (10 mg/ml, 24 h, vs control) was 2.06, the “Fold change, SREBF1” value (10 mg/ml, 24 h, vs control) was 3.15 and the “Fold change, POR” value (10 mg/ml, 24 h, vs control, Affymetrix probe set 11716114_x_at) was 3.68. The “Fold change, G6PD” value (10 mg/ml, 24 h, vs control, Affymetrix probe set 11716292_a_at) was 2.53, the “Fold change, G6PD” value (10 mg/ml, 24 h, vs control, Affymetrix probe set 11716293_x_at) was 2.48 and the “Fold change, INSIG1” value (10 mg/ml, 24 h, vs control, Affymetrix probe set 11716338_a_at) was 2.73. The “Fold change, INSIG1” value (10 mg/ml, 24 h, vs control, Affymetrix probe set 11716339_a_at) was 3.73, the “Fold change, NSMAF” value (10 mg/ml, 24 h, vs control, Affymetrix probe set 11717214_s_at) was 2.01 and the “Fold change, LSS” value (10 mg/ml, 24 h, vs control, Affymetrix probe set 11717620_a_at) was 2.14. The “Fold change, ASAH1” value (10 mg/ml, 24 h, vs control, Affymetrix probe set 11717722_s_at) was 2.54, the “Fold change, EBP” value (10 mg/ml, 24 h, vs control, Affymetrix probe set 11717859_a_at) was 2.48 and the “Fold change, COL4A3BP” value (10 mg/ml, 24 h, vs control, Affymetrix probe set 11721537_a_at) was 2.46. The “Fold change, COL4A3BP” value (10 mg/ml, 24 h, vs control, Affymetrix probe set 11721538_a_at) was 2.19, the “Fold change, HTRA2” value (10 mg/ml, 24 h, vs control, Affymetrix probe set 11726630_a_at) was 2.06 and the “Fold change, LSS” value (10 mg/ml, 24 h, vs control, Affymetrix probe set 11731324_a_at) was 3.13. The “Fold change, CLN3” value (10 mg/ml, 24 h, vs control, Affymetrix probe set 11731408_x_at) was 3.73, the “Fold change, NSMAF” value (10 mg/ml, 24 h, vs control, Affymetrix probe set 11740559_a_at) was 2.34 and the “Fold change, NSMAF” value (10 mg/ml, 24 h, vs control, Affymetrix probe set 11740560_x_at) was 2.19. For the same molecule, the “Fold change, ASAH1” value (10 mg/ml, 24 h, vs control, Affymetrix probe set 11740580_at) was 2.44, the “Fold change, ASAH1” value (10 mg/ml, 24 h, vs control, Affymetrix probe set 11740581_s_at) was 2.41 and the “Fold change, ASAH1” value (10 mg/ml, 24 h, vs control, Affymetrix probe set 11740582_a_at) was 3.46. The “Fold change, ASAH1” value (10 mg/ml, 24 h, vs control, Affymetrix probe set 11743547_a_at) was 3.97, the “Fold change, TM7SF2” value (10 mg/ml, 24 h, vs control, Affymetrix probe set 11744179_x_at) was 2.10 and the “Fold change, CLN3” value (10 mg/ml, 24 h, vs control, Affymetrix probe set 11744874_x_at) was 3.98. The “Fold change, POR” value (10 mg/ml, 24 h, vs control, Affymetrix probe set 11746973_x_at) was 3.22, the “Fold change, CLN3” value (10 mg/ml, 24 h, vs control, Affymetrix probe set 11747203_x_at) was 2.97 and the “Fold change, PPP2R1A” value (10 mg/ml, 24 h, vs control, Affymetrix probe set 11747739_a_at) was 2.33. The “Fold change, PPP2R1A” value (10 mg/ml, 24 h, vs control, Affymetrix probe set 11747740_x_at) was 2.66, the “Fold change, TM7SF2” value (10 mg/ml, 24 h, vs control, Affymetrix probe set 11748279_s_at) was 2.46 and the “Fold change, POR” value (10 mg/ml, 24 h, vs control, Affymetrix probe set 11748368_x_at) was 3.37. For the same molecule, the “Fold change, CLN3” value (10 mg/ml, 24 h, vs control, Affymetrix probe set 11748869_a_at) was 3.24, the “Fold change, CLN3” value (10 mg/ml, 24 h, vs control, Affymetrix probe set 11748870_x_at) was 3.33 and the “Fold change, EBP” value (10 mg/ml, 24 h, vs control, Affymetrix probe set 11749332_x_at) was 2.22. For the same molecule, the “Fold change, COL4A3BP” value (10 mg/ml, 24 h, vs control, Affymetrix probe set 11749683_a_at) was 2.62, the “Fold change, DHCR24” value (10 mg/ml, 24 h, vs control, Affymetrix probe set 11751337_a_at) was 2.11 and the “Fold change, DHCR24” value (10 mg/ml, 24 h, vs control, Affymetrix probe set 11751338_x_at) was 2.31. The “Fold change, PLA2G15” value (10 mg/ml, 24 h, vs control, Affymetrix probe set 11751383_a_at) was 2.52, the “Fold change, G6PD” value (10 mg/ml, 24 h, vs control, Affymetrix probe set 11752486_a_at) was 3.12 and the “Fold change, CLN3” value (10 mg/ml, 24 h, vs control, Affymetrix probe set 11753053_x_at) was 3.08. The “Fold change, PLA2G15” value (10 mg/ml, 24 h, vs control, Affymetrix probe set 11755396_a_at) was 3.26, the “Fold change, CLN3” value (10 mg/ml, 24 h, vs control, Affymetrix probe set 11756016_x_at) was 2.80 and the “Fold change, HTRA2” value (10 mg/ml, 24 h, vs control, Affymetrix probe set 11756421_x_at) was 2.15. For the same molecule, the “Fold change, POR” value (10 mg/ml, 24 h, vs control, Affymetrix probe set 11757517_x_at) was 2.16, the “Fold change, COL4A3BP” value (10 mg/ml, 24 h, vs control, Affymetrix probe set 11758133_s_at) was 2.04 and the “REadj2, CYP51A1///LRRD1” value [1] was 2314.08. For the same molecule, the “REadj2, DHCR7” value [1] was 1204.72, the “REadj2, HMGCS1” value [1] was 1284.34 and the “REadj2, HSD17B7” value [1] was 166.42. The “REadj2, MVD” value [1] was 530.60, the “REadj2, SC5D” value [1] was 537.03 and the “REadj2, SREBF1” value [1] was 456.21. For the same molecule, the “REadj2, G6PD” value (relative expression adjusted to detection limit (<20), 10 mg/ml, 24 h, Affymetrix probe set 11716292_a_at) was 438.70, the “REadj2, G6PD” value (relative expression adjusted to detection limit (<20), 10 mg/ml, 24 h, Affymetrix probe set 11716293_x_at) was 290.47 and the “REadj2, INSIG1” value (relative expression adjusted to detection limit (<20), 10 mg/ml, 24 h, Affymetrix probe set 11716338_a_at) was 1272.02. For the same molecule, the “REadj2, INSIG1” value (relative expression adjusted to detection limit (<20), 10 mg/ml, 24 h, Affymetrix probe set 11716339_a_at) was 1678.67, the “REadj2, EBP” value (relative expression adjusted to detection limit (<20), 10 mg/ml, 24 h, Affymetrix probe set 11717859_a_at) was 1008.77 and the “REadj2, HTRA2” value (relative expression adjusted to detection limit (<20), 10 mg/ml, 24 h, Affymetrix probe set 11726630_a_at) was 252.64. For the same molecule, the “REadj2, TM7SF2” value (relative expression adjusted to detection limit (<20), 10 mg/ml, 24 h, Affymetrix probe set 11744179_x_at) was 62.22, the “REadj2, TM7SF2” value (relative expression adjusted to detection limit (<20), 10 mg/ml, 24 h, Affymetrix probe set 11748279_s_at) was 100.08 and the “REadj2, EBP” value (relative expression adjusted to detection limit (<20), 10 mg/ml, 24 h, Affymetrix probe set 11749332_x_at) was 812.08. For the same molecule, the “REadj2, DHCR24” value (relative expression adjusted to detection limit (<20), 10 mg/ml, 24 h, Affymetrix probe set 11751337_a_at) was 176.26, the “REadj2, DHCR24” value (relative expression adjusted to detection limit (<20), 10 mg/ml, 24 h, Affymetrix probe set 11751338_x_at) was 345.60 and the “REadj2, PLA2G15” value (relative expression adjusted to detection limit (<20), 10 mg/ml, 24 h, Affymetrix probe set 11751383_a_at) was 103.53. For the same molecule, the “REadj2, G6PD” value (relative expression adjusted to detection limit (<20), 10 mg/ml, 24 h, Affymetrix probe set 11752486_a_at) was 220.41, the “REadj2, PLA2G15” value (relative expression adjusted to detection limit (<20), 10 mg/ml, 24 h, Affymetrix probe set 11755396_a_at) was 177.48 and the “REadj2, HTRA2” value (relative expression adjusted to detection limit (<20), 10 mg/ml, 24 h, Affymetrix probe set 11756421_x_at) was 227.59.

Reference: US20220267380A1, “Glycopeptides Increasing Lipid Synthesis” (TFCHEM, priority 2019, published 2022)
